≈ marks a conversion by molar mass, not a printed value.
Key:
[1] = test system: ANKA strain of Plasmodium berghei; test: single dose ED50/ED90/ED99 determinations in infected mice; format: in vivo; settings: single dose po in SSV, mice, percent reduction in parasitemia on day three post-infection
Procedure: In the single dose ED50/ED90/ED99 determinations, Moro SPF or NMRI mice (group of three) infected with the ANKA strain of Plasmodium berghei were treated on day one post-infection. […] The SSV consists of 0.5% w/v CMC, 0.5% v/v benzyl alcohol, 0.4% v/v Tween 80, and 0.9% w/v sodium chloride in water. Antimalarial activity was measured by percent reduction in parasitemia on day three post-infection. The ED50/ED90 values were calculated by nonlinear fitting.

[2] = test system: P. berghei ANKA strain; test: treatment: 3x10 mg/kg p.o. divided dose vs 1x30 mg/kg po single dose in infected mice; format: in vivo, Plasmodium berghei; settings: for Cures: survival to day 30 post-infection = cure, cured/treated mice; for Activity (%) p.o. SSV: percent reduction of parasitemia day 4
Procedure: Moro NMRI male mice (Fü Albino specific pathogen free) weighing 18±2 g were infected intravenously (i.v.) with 2×10^7 P. berghei ANKA strain-infected erythrocytes from donor mice on day 0 of the experiment. From donor mice with circa 30% parasitemia, heparinized blood was taken and diluted in physiological saline to 10^8 parasitized erythrocytes per ml. An aliquot (0.2 ml) of this suspension was injected i.v. into experimental and control groups of mice. […] Throughout the experiments, mice were kept in groups of three or five animals in Makrolon type II cages in an air-conditioned animal room at 22 to 23° C.
They were administered per os (p.o.) in a total volume of 0.01 ml per gram of mouse. The activity of the compound was determined by a variety of methods outlined in subsequent sections. Survival time was also recorded, and survival to day 30 post-infection was considered to be a cure.
The first experiment conducted consisted of administration of a divided 3×10 mg/kg p.o. dose administered on days 1, 2, and 3 post-infection vs. a single 1×30 mg/kg po dose administered on day 1 post-infection. On day 4 post-infection, blood smears of all animals were prepared and stained with Giemsa. […] Compounds were administered orally in the SSV vehicle.

[3] = test system: P. berghei ANKA strain; test: treatment: 3x3 mg/kg and 3x1 mg/kg po divided doses in infected mice; format: in vivo, Plasmodium berghei; settings: for Activity (%) p.o. SSV: percent reduction of parasitemia day 4
Procedure: (§1) Moro NMRI male mice (Fü Albino specific pathogen free) weighing 18±2 g were infected intravenously (i.v.) with 2×10^7 P. berghei ANKA strain-infected erythrocytes from donor mice on day 0 of the experiment. From donor mice with circa 30% parasitemia, heparinized blood was taken and diluted in physiological saline to 10^8 parasitized erythrocytes per ml. An aliquot (0.2 ml) of this suspension was injected i.v. into experimental and control groups of mice. In untreated control mice, parasitemia rose regularly to 40 to 50% by day 3 post-infection and 70 to 80% by day 4 post-infection. The mice died between days 5 and 7 post-infection. Throughout the experiments, mice were kept in groups of three or five animals in Makrolon type II cages in an air-conditioned animal room at 22 to 23° C. A diet with p-aminobenzoic acid (PABA) of 45 mg (NAFAG FUTTER© food N^o 9009 PAB-45) per kg of body weight, and tap water is available ad libitum.
(§2) OZ compounds were prepared at an appropriate concentration, either as a solution or a suspension containing SSV (0.5% w/v CMC, 0.5% v/v benzyl alcohol, 0.4% v/v Tween 80, and 0.9% w/v sodium chloride in water). They were administered per os (p.o.) in a total volume of 0.01 ml per gram of mouse. The activity of the compound was determined by a variety of methods outlined in subsequent sections. Survival time was also recorded, and survival to day 30 post-infection was considered to be a cure.
The second experiment consists of administration of divided 3×3 mg/kg and 3×1 mg/kg po doses administered on days 1, 2, and 3 post-infection. On day 4 post-infection, blood smears of all animals were prepared and stained with Giemsa. Parasitemia was determined microscopically, and the difference between the mean value of the control group (taken as 100%) and those of the experimental groups was calculated and expressed as percent reduction. Compounds were administered orally in the SSV vehicle.

[4] = test system: P. falciparum K1 strain (Thailand resistant to chloroquine); test: semiautomated microdilution assay, [3H]-hypoxanthine incorporation, K1 strain; format: cell-based, Plasmodium falciparum; settings: K1 strain, 72 h incubation
Outline: (§3)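 Compounds were tested against intraerythrocytic parasites taken from asynchronous stock cultures, using semiautomated microdilution. IC50 values were estimated by logit regression analysis.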

[5] = test system: P. falciparum NF54 strain (sensitive to standard antimalarials); test: semiautomated microdilution assay, [3H]-hypoxanthine incorporation, NF54 strain; format: cell-based, Plasmodium falciparum; settings: NF54 strain, 72 h incubation
Outline: as §3

[6] = test system: ANKA strain of P. berghei; test: single dose STI in vivo screen in infected mice; parameters: species or system Plasmodium berghei
Outline: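 Groups of 3-5 Moro SPF or NMRI mice infected with the ANKA strain of P. berghei received a single dose of trioxolane on day one post-infection. The compound was given in 3% ethanol and 7% Tween 80 or in SSV (0.5% w/v CMC, 0.5% v/v benzyl alcohol, 0.4% v/v Tween 80, 0.9% w/v sodium chloride in water). Antimalarial activity was scored as percent reduction in parasitemia on day three and as survival time versus untreated controls. Survival to day 30 counted as cure.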

[7] = test system: Schistosoma mansoni 21-day-old schistosomules; test: effect on 21-day-old schistosomules in mice; format: in vivo; settings: single 200 mg/kg per os, female mice
Procedure: All groups were killed 4 weeks after treatment and the liver and intestine were removed and separated. The liver and intestine were compressed and alive male and female worms could be seen and counted. The effect of the compounds was evaluated by mean total and female worm burden.

[8] = test system: Schistosoma mansoni adult schistosomes (49-day-old); test: effect on adult schistosomes (49-day-old) in mice; format: in vivo; settings: single 400 mg/kg per os
Procedure: Mice were infected with 100 Schistosoma mansoni cercariae […]. Each group was treated per os with OZ compounds at single doses of 200, 400, and 600 mg/kg. […] All groups were killed 4 weeks after treatment and the liver and intestine were removed and separated. The liver and intestine were compressed and alive male and female worms could be seen and counted.

[9] = test system: P. berghei ANKA strain; test: prophylactic activity, single 100 mg/kg po dose before infection; format: in vivo, Plasmodium berghei; settings: for Prophylactic Activity (%): reduction of parasitemia day 3 post-infection
Procedure: as §1, §2
Prophylactic activities of the compounds were compared after administering po single dose of 100 mg/kg to different groups of five animals at various times before infection. All groups including an untreated control group, were then infected at the same time. Parasitemia was determined for each animal on day 3 post-infection, and percent of reduction of the level of parasitemia compared to levels for animals given no drug is determined.

[10] = 3 × 10 mg/kg days 1, 2, 3 post-infection
[11] = 3 × 1 mg/kg days 1, 2, 3 post-infection
[12] = 3 × 3 mg/kg days 1, 2, 3 post-infection
[13] = 1 × 30 mg/kg single dose day 1 post-infection
[14] = single 100 mg/kg po 24 h before infection
[15] = single 100 mg/kg po 48 h before infection
[16] = single 100 mg/kg po 72 h before infection

SMILES	Cures ([2]; 1 × 30 mg/kg)	Survival (days) p.o. SSV [2, 10] [days]	Activity (%) p.o. SSV [2, 10] [%]	Survival (days) p.o. SSV [3, 11] [days]	Activity (%) p.o. SSV [3, 11] [%]	Survival (days) p.o. SSV [3, 12] [days]	Activity (%) p.o. SSV [3, 12] [%]	Survival (days) p.o. SSV [2, 13] [days]	Activity (%) p.o. SSV [2, 13] [%]	Prophylactic Activity (%) [9, 14] [%]	Prophylactic Activity (%) [9, 15] [%]	Prophylactic Activity (%) [9, 16] [%]	Prophylactic Activity (%) ([9]; single 100 mg/kg po at 0 h)	other results
CCN(CC)CCCC(C)Nc1ccnc2cc(Cl)ccc12 (stereo not shown) [CQ, chloroquine, reference compound]	0/5													ED99 [1]: 5.9 mg/kg; Cures ([2]; 3 × 10 mg/kg): 0/5
Cc1ccc(S(=O)(=O)O)cc1.NC1CCC(NC(=O)CC2CCC3(CC2)OOC2(O3)C3CC4CC(C3)CC2C4)CC1 (stereo not shown) [compound 315]		>30	100	12.2	81	22	99.99							
NCC(=O)NC[C@H]1CC[C@]2(CC1)OO[C@]1(O2)C2CC3CC(C2)CC1C3 [OZ271]														IC50 (ng/ml) K1 [4]: 0.36 ng/mL (≈ 1.03 nM); IC50 (ng/ml) NF54 [5]: 0.29 ng/mL (≈ 0.827 nM); Survival (days) 10 mg/kg SSV po ([6]; single 10 mg/kg po in SSV): 8.7 days; % reduction of schistosomule growth at day 21 after per os application of 200 mg/kg, FWR (%) [7]: 86%; % reduction of schistosomule growth at day 21 after per os application of 200 mg/kg, TWR (%) [7]: 88%; % reduction of adult worms growth at day 49 after per os application of 400 mg/kg, TWR (%) [8]: 0%; adult worms at day 49, per os 400 mg/kg, DEAD WORM (%) [8]: 6%; duration of prophylactic protection ([9]; single 100 mg/kg po before infection): 3 days
CS(=O)(=O)O.NCC(=O)NCC1CCC2(CC1)OOC1(O2)C2CC3CC(C2)CC1C3 (stereo not shown) [compound 271]	0/5	27.8	100	8.8	87	16.2	99.99	14	99.97	100	99.98	99.89	100	
CS(=O)(=O)O.NCC1CCC2(CC1)OOC1(O2)C2CC3CC(C2)CC1C3 (stereo not shown) [compound 209]	0/5	>30	100	9.4	99.51	16.4	100	>30	100	100	99.9	99.92	100	
NC[C@H]1CC[C@]2(CC1)OOC1(O2)C2CC3CC(C2)CC1C3 (stereo partly shown) [OZ209]														Survival (days) SSVpo ([6]; single po dose in SSV, untreated control 5.6 ± 0.3): 10.0 days; % reduction of schistosomule growth at day 21 after per os application of 200 mg/kg, TWR (%) [7]: 85%; ED90 [1]: 1.4 mg/kg; ED99 [1]: 3.0 mg/kg; activity (percent reduction of parasitemia) ([3]; 3×1 mg/kg po on days 1, 2, 3 post-infection, SSV): greater than 99%
Cc1ccc(S(=O)(=O)O)cc1.O=C(CC1CCC2(CC1)OOC1(O2)C2CC3CC(C2)CC1C3)N1CCNCC1 (stereo not shown) [compound 279]	0/5	25.4	100	8.8	83	14.8	100	14.8	99.95	97	27	14	100	
CS(=O)(=O)O.c1cc(OCC2CCC3(CC2)OOC2(O3)C3CC4CC(C3)CC2C4)ccn1 (stereo not shown) [compound 301]		>30	100	8.8	58	23	100							
CC(C)(N)C(=O)NCC1CCC2(CC1)OOC1(O2)C2CC3CC(C2)CC1C3 (stereo not shown) [compound 281]				13	92	12.4	100			99.23	45	8	100	
CC(C)(N)CNC(=O)CC1CCC2(CC1)OOC1(O2)C2CC3CC(C2)CC1C3.Cc1ccc(S(=O)(=O)O)cc1 (stereo not shown) [compound 277]	0/5	27.6	100	9.4	83	14	100	10.4	99.92	25	7	9	100	

From US6906205B2, “Spiro and dispiro 1,2,4-trioxolane antimalarials” (Medicines for Malaria Venture MMV, priority 2002, dated 2005)
